# Experimental data as given in ChEMBL document CHEMBL4308839, “Recent Progress in the Discovery of Allosteric Inhibitors of Kidney-Type Glutaminase” (J Med Chem, 2018).
# Molecular target: T1, Glutaminase kidney isoform, mitochondrial (Homo sapiens, UniProt O94925)
# T1 sequence (O94925 whole entry): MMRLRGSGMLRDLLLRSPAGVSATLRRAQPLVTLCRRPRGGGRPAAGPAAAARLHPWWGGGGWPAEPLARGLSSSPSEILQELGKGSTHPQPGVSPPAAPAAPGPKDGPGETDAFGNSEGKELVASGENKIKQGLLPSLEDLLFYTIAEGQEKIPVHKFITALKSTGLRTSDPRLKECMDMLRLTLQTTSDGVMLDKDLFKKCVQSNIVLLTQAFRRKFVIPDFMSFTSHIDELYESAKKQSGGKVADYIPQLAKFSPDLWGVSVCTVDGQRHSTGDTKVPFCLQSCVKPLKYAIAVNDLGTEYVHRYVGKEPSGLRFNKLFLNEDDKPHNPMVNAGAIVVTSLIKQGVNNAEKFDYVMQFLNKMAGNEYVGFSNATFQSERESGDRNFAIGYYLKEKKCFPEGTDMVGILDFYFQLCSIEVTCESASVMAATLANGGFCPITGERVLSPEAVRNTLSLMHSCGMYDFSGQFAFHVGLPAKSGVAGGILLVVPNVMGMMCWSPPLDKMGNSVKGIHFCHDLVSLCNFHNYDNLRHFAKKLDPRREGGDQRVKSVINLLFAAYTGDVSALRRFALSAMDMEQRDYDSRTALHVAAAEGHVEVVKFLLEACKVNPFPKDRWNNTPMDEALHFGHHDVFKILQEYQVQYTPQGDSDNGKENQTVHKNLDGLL
# Assay: Inhibition of human KGA (1 to 669 residues) preincubated for 20 mins using 7 mM glutamine as substrate
row,Compound,IC50 [µM]
1,O=C(Nc1nnc(CCOCCc2nnc(NC(=O)c3ccccc3)s2)s1)c1ccccc1,10.2

# Molecular target: T1, Glutaminase kidney isoform, mitochondrial
# Assay: Inhibition of GAC (unknown origin) assessed as NADH formation using 1.8 to 13 mM glutamine as substrate preincubated for 60 mins by resorufin dye based assay
row,Compound,IC50 [nM]
1,O=C(Cc1ccccn1)Nc1nnc(C2CCCCC(c3nnc(NC(=O)Cc4ccccn4)s3)C2)s1 (centres undefined),1000 to 2000
2,O=C(Cc1ccccn1)Nc1nnc([C@@H]2CC[C@H](c3nnc(NC(=O)Cc4ccccn4)s3)C2)s1,500 to 1000
3,O=C(Cc1ccccn1)Nc1nnc(CC2CCC(Cc3nnc(NC(=O)Cc4ccccn4)s3)C2)s1 (centres undefined),2000 to 10000
4,O=C(Cc1ccccn1)Nc1nnc(C[C@@H]2C[C@H]2Cc2nnc(NC(=O)Cc3ccccn3)s2)s1 (racemic),500 to 1000
5,O=C(Cc1c[nH]c2ccccc12)Nc1nnc(CCCCc2nnc(NC(=O)Cc3c[nH]c4ccccc34)s2)s1,< 100
6,O=C(Cc1ccccn1)Nc1nnc([C@@H]2CCC[C@H](c3nnc(NC(=O)Cc4ccccn4)s3)C2)s1,1000 to 2000
7,O=C(Cc1ccccc1)Nc1nnc([C@H]2CCC[C@H](c3nnc(NC(=O)Cc4ccccc4)s3)C2)s1,< 100
8,O=C(CCCC(=O)c1ccccc1)Nc1nnc(CCCCc2nnc(NC(=O)CCCC(=O)c3ccccc3)s2)s1,< 100
9,CC(=O)Nc1ccc([C@@H]2CCC[C@H](c3ccc(NC(C)=O)nn3)C2)nn1,< 100
10,O=C(Cc1ccccn1)Nc1nnc([C@H]2CCC[C@H](c3nnc(NC(=O)Cc4ccccn4)s3)C2)s1,< 100
11,O=C(Cc1ccccn1)Nc1ccc([C@@H]2CCC[C@H](c3ccc(NC(=O)Cc4ccccn4)nn3)C2)nn1,< 100
12,O=C(Cc1ccccn1)Nc1nnc([C@@H]2CCC[C@@H](c3nnc(NC(=O)Cc4ccccn4)s3)C2)s1,1000 to 2000
13,O=C(Cc1ccccn1)Nc1nnc(CC2CC(Cc3nnc(NC(=O)Cc4ccccn4)s3)C2)s1 (centres undefined),2000 to 10000
14,O=C(Cc1ccccn1)Nc1nnc([C@H]2CC[C@H](c3nnc(NC(=O)Cc4ccccn4)s3)C2)s1,< 100
15,O=C(Cc1ccccn1)Nc1nnc(C[C@H]2CC[C@H](Cc3nnc(NC(=O)Cc4ccccn4)s3)CC2)s1,500 to 1000
16,O=C(Cc1ccccn1)Nc1ccc([C@H]2CCC[C@H](c3ccc(NC(=O)Cc4ccccn4)nn3)C2)nn1,< 100
17,O=C(Cc1ccccn1)Nc1nnc([C@@H]2CC[C@@H](c3nnc(NC(=O)Cc4ccccn4)s3)C2)s1,< 100
18,CC(=O)Nc1ccc([C@H]2CCC[C@H](c3ccc(NC(C)=O)nn3)C2)nn1,2000 to 10000

# Molecular target: T1, Glutaminase kidney isoform, mitochondrial
# Assay: Inhibition of GAC (unknown origin) assessed as NADH formation using 10 mM glutamine as substrate preincubated for 60 mins
row,Compound,IC50 [nM]
1,CN(C)c1ccc(CC(=O)Nc2nnc(CCCCc3nnc(NC(=O)Cc4ccc(N(C)C)cc4)s3)s2)cc1,240
2,O=C(Cc1ccccc1)Nc1ccc(CCCCc2nnc(NC(=O)Cc3ccccc3)s2)nn1,80
3,O=C(Cc1ccccc1)Nc1ccc(CCCCc2ccc(NC(=O)Cc3ccccc3)nn2)nn1,10

# Molecular target: T1, Glutaminase kidney isoform, mitochondrial
# Assay: Inhibition of GAC (unknown origin) using 1 mM glutamine as substrate preincubated for 10 mins by resorufin dye based assay
row,Compound,IC50 [nM]
1,O=C(Cc1ccccc1)Nc1ccn(CCC(F)Cn2cc(C(=O)NCc3cccc(OC(F)(F)F)c3)nn2)c(=O)c1 (centres undefined),≤ 100
2,O=C(Cc1cccc(OC(F)(F)F)c1)Nc1ccc(CCCCc2nnc(C(=O)NCc3ccccn3)s2)nn1,< 100
3,O=C(Cc1ccccc1)Nc1ccn(CCCCn2cc(C(=O)NCc3cccc(OC(F)(F)F)c3)nn2)c(=O)c1,≤ 100
4,O=C(Cc1cccc(OC(F)(F)F)c1)Nc1ccc(N2CCC(c3nnc(NC(=O)Cc4ccccn4)s3)C2)nn1 (centres undefined),≤ 100
5,O=C(Cc1ccccn1)Nc1ccc([C@@H]2CCN(c3nnc(C(=O)NCc4cc(C(F)(F)F)ccn4)s3)C2)nn1,≤ 100
6,O=C(Cc1ccccc1)Nc1nnc(CCCCc2cc3cc(Cc4ccccc4)[nH]c3nn2)s1,≤ 100
7,O=C(Cc1ccccc1)Nc1ccn(CC(F)CCn2cc(C(=O)NCc3cccc(OC(F)(F)F)c3)nn2)c(=O)c1 (centres undefined),≤ 100
8,O=C(Cc1cccc(OC(F)(F)F)c1)Nc1ccc(C2CCN(c3nnc(NC(=O)Cc4ccccn4)s3)C2)nn1 (centres undefined),≤ 100
9,O=C(NCc1ccccn1)c1cn(CCCCc2nnc(C(=O)NCc3cccc(OC(F)(F)F)c3)s2)nn1,< 100
10,O=C(Cc1ccccc1)Nc1ccn(CCCCc2nnc(NC(=O)Cc3ccccc3)s2)c(=O)c1,≤ 100
11,O=C(Cc1ccccc1)Nc1ccn(CCCCc2nnc(NC(=O)Cc3ccccc3)s2)c(=O)n1,≤ 100
12,O=C(Cc1ccccc1)Nc1ccc(CCCCn2ccc(NC(=O)Cc3ccccc3)nc2=O)nn1,≤ 100
13,Cc1ccc(CNC(=O)c2cn(CCCCc3cc4cc(-c5ccccc5F)[nH]c4nn3)nn2)cn1,≤ 100
14,O=C(Cc1ccccn1)Nc1ccc([C@H]2CCN(c3nnc(C(=O)NCc4cc(C(F)(F)F)ccn4)s3)C2)nn1,100 to 500
15,O=C(NCc1ccccc1)c1cn(CCCCc2cc3cc(Cc4ccccc4)[nH]c3nn2)nn1,≤ 100
16,O=C(Cc1ccccc1)Nc1ccn(CCCCc2cc3cc(Cc4ccccc4)[nH]c3nn2)c(=O)c1,≤ 100

# Molecular target: not listed separately
# Assay: Inhibition of mouse brain glutaminase assessed as ammonia formation using glutamine as substrate by Nessler's reagent based assay
row,Compound,IC50 [nM]
1,O=C(Cc1cccc(OC(F)(F)F)c1)Nc1ccc(CCCCc2nnc(NC(=O)Cc3ccccn3)s2)cn1,50 to 100

# Molecular target: T2, Glutaminase kidney isoform, mitochondrial (Mus musculus, UniProt D3Z7P3)
# T2 sequence (D3Z7P3 whole entry): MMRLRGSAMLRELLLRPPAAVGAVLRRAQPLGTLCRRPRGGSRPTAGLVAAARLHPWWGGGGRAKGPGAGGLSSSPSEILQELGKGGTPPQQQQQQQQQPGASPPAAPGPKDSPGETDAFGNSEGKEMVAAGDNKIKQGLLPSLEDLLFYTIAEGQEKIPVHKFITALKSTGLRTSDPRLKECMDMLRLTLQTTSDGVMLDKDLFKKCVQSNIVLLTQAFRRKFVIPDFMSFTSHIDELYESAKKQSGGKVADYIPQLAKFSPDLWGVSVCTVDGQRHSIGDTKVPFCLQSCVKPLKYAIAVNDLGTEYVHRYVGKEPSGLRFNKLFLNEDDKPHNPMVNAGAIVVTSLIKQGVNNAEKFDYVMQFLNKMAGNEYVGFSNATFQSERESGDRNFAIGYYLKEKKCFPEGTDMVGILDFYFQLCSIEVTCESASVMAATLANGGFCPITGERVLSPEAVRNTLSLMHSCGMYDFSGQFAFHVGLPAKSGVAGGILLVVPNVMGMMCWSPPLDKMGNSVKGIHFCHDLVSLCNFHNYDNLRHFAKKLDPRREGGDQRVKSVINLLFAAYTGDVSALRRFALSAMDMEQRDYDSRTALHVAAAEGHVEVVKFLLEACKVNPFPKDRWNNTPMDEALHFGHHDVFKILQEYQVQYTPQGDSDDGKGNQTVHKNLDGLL
# Assay: Inhibition of mouse kidney glutaminase assessed as ammonia formation using glutamine as substrate by Nessler's reagent based assay
row,Compound,IC50 [nM]
1,O=C(Cc1cccc(OC(F)(F)F)c1)Nc1ccc(CCCCc2nnc(NC(=O)Cc3ccccn3)s2)cn1,50 to 100

# Molecular target: not listed separately
# Assay: (§1) Inhibition of mouse brain glutaminase assessed as ammonia formation at 0.1 uM using glutamine as substrate by Nessler's reagent based assay relative to control
row,Compound,IC50 [nM]
1,O=C(Cc1ccccn1)Nc1ccc(N2CCC(c3nnc(NC(=O)Cc4cccc(OC(F)(F)F)c4)s3)CC2)nn1,< 50
2,O=C(Cc1cccc(OC(F)(F)F)c1)Nc1ccc(N2CCC(c3nnc(NC(=O)Cc4ccccn4)s3)CC2)cn1,1000 to 2000
3,O=C(Cc1cccc(OC(F)(F)F)c1)Nc1ccc(CC2CC(c3nnc(NC(=O)Cc4ccccn4)s3)C2)nn1 (centres undefined),< 25
4,O=C(Cc1cccc(OC(F)(F)F)c1)Nc1ccc(N2CCC(c3nnc(NC(=O)Cc4ccccn4)s3)CC2)nn1,< 50
5,O=C(Cc1cccc(OC(F)(F)F)c1)Nc1ccc(N2CCCC(c3nnc(NC(=O)Cc4ccccn4)s3)C2)nn1 (centres undefined),50 to 200

# Species on record: Mus musculus
# Assay: as §1
row,Compound,inhibition [%]
1,O=C(Cc1cccc(OC(F)(F)F)c1)Nc1cnc(CCCCc2nnc(NC(=O)Cc3ccccn3)s2)cn1,< 25

# Molecular target: T3, Glutaminase kidney isoform, mitochondrial (Mus musculus) (UniProt D3Z7P3)
# T3 sequence (whole entry): T2 sequence (D3Z7P3 whole entry)
# Assay: (§2) Inhibition of mouse kidney glutaminase assessed as ammonia formation at 0.1 uM using glutamine as substrate by Nessler's reagent based assay relative to control
row,Compound,inhibition [%]
1,O=C(Cc1cccc(OC(F)(F)F)c1)Nc1cnc(CCCCc2nnc(NC(=O)Cc3ccccn3)s2)cn1,< 25

# Molecular target: T2, Glutaminase kidney isoform, mitochondrial
# Assay: as §2
row,Compound,IC50 [nM]
1,O=C(Cc1ccccn1)Nc1ccc(N2CCC(c3nnc(NC(=O)Cc4cccc(OC(F)(F)F)c4)s3)CC2)nn1,< 50
2,O=C(Cc1cccc(OC(F)(F)F)c1)Nc1ccc(N2CCC(c3nnc(NC(=O)Cc4ccccn4)s3)CC2)cn1,1000 to 2000
3,O=C(Cc1cccc(OC(F)(F)F)c1)Nc1ccc(CC2CC(c3nnc(NC(=O)Cc4ccccn4)s3)C2)nn1 (centres undefined),< 25
4,O=C(Cc1cccc(OC(F)(F)F)c1)Nc1ccc(N2CCC(c3nnc(NC(=O)Cc4ccccn4)s3)CC2)nn1,< 50
5,O=C(Cc1cccc(OC(F)(F)F)c1)Nc1ccc(N2CCCC(c3nnc(NC(=O)Cc4ccccn4)s3)C2)nn1 (centres undefined),50 to 200

# Molecular target: T1, Glutaminase kidney isoform, mitochondrial
# Assay: Inhibition of kidney-type glutaminase in human BT20 cells assessed as reduction in glutamate level
# Format: cell-based
row,Compound,IC50 [nM]
1,Cn1ccc(CC(=O)Nc2nnc([C@H]3C[C@@]4(C[C@H](c5nnc(NC(=O)Cc6ccn(C)n6)s5)C4)C3)s2)n1 (some centres undefined),2.7
2,Cn1ccc(CC(=O)Nc2nnc([C@H]3C[C@]4(C[C@H](c5nnc(NC(=O)Cc6ccn(C)n6)s5)C4)C3)s2)n1 (some centres undefined),0.5
3,O=C(Cc1cccc(OC(F)(F)F)c1)Nc1ccc(C[C@H]2C[C@@H](c3nnc(NC(=O)Cc4ccccn4)s3)C2)nn1,0.2
4,O=C(Cc1cccc(OC(F)(F)F)c1)Nc1ccc(C[C@@H]2CC[C@H](c3nnc(NC(=O)Cc4ccccn4)s3)C2)nn1,0.1

# Molecular target: T1, Glutaminase kidney isoform, mitochondrial
# Assay: Inhibition of human KGA (63 to 669 residues) preincubated for 15 mins using 50 mM glutamine as substrate by resorufin dye based assay
row,Compound,IC50 [nM]
1,CO[C@H](C(=O)Nc1nnc(N[C@@H]2CCN(c3cc(Cl)cnn3)C2)s1)c1ccccc1,40
2,O=C(Nc1nnc(N[C@@H]2CCN(c3cccnn3)C2)s1)[C@@H](c1cccc(OC(F)(F)F)c1)N1CCC1,100
3,CO[C@H](C(=O)Nc1ccc(N2CC[C@@H](Nc3cccnn3)C2)nn1)c1cccc(OC(F)F)c1,25
